Like-named read-outs stand apart in the source and are kept apart here.
Columns and labels:
Type in all cases: biochemical
human CSNK1A1 [1] = molecular target: T1, human CSNK1A1 (Homo sapiens (Human), UniProt P48729); experiment: CSNK1A1 Assay 2 (ADP-Glo, 1 μM ATP); settings: substrate biotin-Ahx-KRRRAL-pS-VASLPGL, read-out: CSNK1A1 Assay 2 IC50 [mol/l] (median)
In short: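 Full-length human CSNK1A1 as an N-terminal GST fusion (baculovirus/insect cells) with biotinylated peptide substrate biotin-Ahx-KRRRAL-pS-VASLPGL and 1 μM ATP, in HEPES pH 7.5 buffer. Compounds were pre-incubated with enzyme (~0.0375 ng/μL) for 15 min at 22 °C. Generated ADP was read by ADP-Glo luminescence as the activity measure.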

human CSNK1A1 [2] = molecular target: T1, human CSNK1A1; experiment: CSNK1A1 High ATP Assay (ADP-Glo, 1 mM ATP); settings: read-out: CSNK1A1 high ATP assay IC50 [mol/l] (median)
In short: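 GST-tagged full-length human CSNK1A1 from baculovirus-infected insect cells (typically about 0.4 ng/μL), pre-incubated with compound 15 min at 22 °C. Reaction with biotinylated peptide biotin-Ahx-KRRRAL-pS-VASLPGL at 1 mM ATP. ADP formed read by ADP-Glo luminescence.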

[3] = molecular target: wild-type Epidermal Growth Factor Receptor (EGFR) (Homo sapiens (Human), UniProt P00533); experiment: WT-EGFR Kinase Assay (TR-FRET, 2 mM ATP)
Sequence of wild-type Epidermal Growth Factor Receptor (EGFR) (P00533 669-1210): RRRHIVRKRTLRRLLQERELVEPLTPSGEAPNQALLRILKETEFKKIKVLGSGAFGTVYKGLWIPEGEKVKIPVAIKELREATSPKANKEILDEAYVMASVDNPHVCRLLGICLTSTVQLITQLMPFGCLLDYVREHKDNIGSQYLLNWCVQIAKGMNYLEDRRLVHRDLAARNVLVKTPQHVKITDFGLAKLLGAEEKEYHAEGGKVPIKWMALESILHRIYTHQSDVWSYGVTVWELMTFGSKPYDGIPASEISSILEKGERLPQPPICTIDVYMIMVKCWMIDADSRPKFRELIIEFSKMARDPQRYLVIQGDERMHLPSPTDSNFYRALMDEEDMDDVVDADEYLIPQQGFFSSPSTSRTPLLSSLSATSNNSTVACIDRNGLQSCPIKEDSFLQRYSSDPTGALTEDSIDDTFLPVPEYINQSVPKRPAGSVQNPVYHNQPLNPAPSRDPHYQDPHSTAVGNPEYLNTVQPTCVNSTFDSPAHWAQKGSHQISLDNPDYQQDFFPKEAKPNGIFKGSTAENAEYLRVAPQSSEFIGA

human CSNK1D = human CSNK1D (Homo sapiens (Human), UniProt P48730); experiment: CSNK1D Assay (ADP-Glo, 1 μM ATP); settings: read-out: CSNK1D IC50 [mol/l] (median)
Sequence of human CSNK1D (P48730 whole entry): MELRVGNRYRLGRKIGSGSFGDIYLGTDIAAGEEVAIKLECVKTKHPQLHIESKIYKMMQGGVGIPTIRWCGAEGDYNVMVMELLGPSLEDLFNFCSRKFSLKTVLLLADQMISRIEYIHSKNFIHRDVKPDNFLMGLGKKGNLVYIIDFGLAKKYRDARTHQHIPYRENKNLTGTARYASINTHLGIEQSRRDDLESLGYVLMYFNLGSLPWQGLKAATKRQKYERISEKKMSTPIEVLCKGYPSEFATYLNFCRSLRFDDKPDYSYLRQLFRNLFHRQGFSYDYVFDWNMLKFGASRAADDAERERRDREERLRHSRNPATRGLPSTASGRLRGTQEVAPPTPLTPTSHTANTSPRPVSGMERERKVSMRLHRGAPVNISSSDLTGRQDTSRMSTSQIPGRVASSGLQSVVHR
In short: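 GST-tagged full-length human CSNK1D from baculovirus-infected insect cells, typically ~0.5 ng/μL, with biotinylated peptide substrate and 1 μM ATP in HEPES pH 7.5 buffer. Compound is preincubated with enzyme 15 min at 22 °C. ADP formed is quantified by ADP-Glo luminescence.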

[4] = EGFR Wildtyp- 2 mM ATP IC50 [mol/l] (median)
[5] = read-out: EGFR Wildtyp- 2 mM ATP IC50 [mol/l] (median)

T1 sequence (P48729 whole entry, the tested form may be a part): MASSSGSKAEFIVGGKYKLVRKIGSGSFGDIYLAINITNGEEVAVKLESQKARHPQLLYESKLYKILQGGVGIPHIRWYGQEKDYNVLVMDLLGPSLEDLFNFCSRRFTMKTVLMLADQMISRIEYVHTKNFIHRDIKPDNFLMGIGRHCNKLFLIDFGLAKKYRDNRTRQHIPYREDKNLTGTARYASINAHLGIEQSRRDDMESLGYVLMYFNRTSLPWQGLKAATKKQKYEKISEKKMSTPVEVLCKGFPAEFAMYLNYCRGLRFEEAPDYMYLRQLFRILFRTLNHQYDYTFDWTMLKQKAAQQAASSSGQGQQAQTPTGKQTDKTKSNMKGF

Structure (SMILES) | IC50 (human CSNK1A1 [1]) | IC50 (human CSNK1A1 [2]) | IC50 [3, 4] | IC50 (human CSNK1D) | IC50 [3, 5]
CN1C(=O)c2c([nH]c(-c3ccnc(NC(=O)C(CC(F)F)c4ccc(F)cc4)c3)c2Nc2ccccc2F)CC1(C)C (single isomer, unassigned) [Example 46, 4,4-difluoro-N-{4-[3-(2-fluoroanilino)-5,6,6-trimethyl-4-oxo-4,5,6,7-tetrahydro-1H-pyrrolo[3,2-c]pyridin-2-yl]pyridin-2-yl}-2-(4-fluorophenyl)butanamide] | 6.64 nM | 119 nM | > 20000 nM | 8.33 nM | 
CN1C(=O)c2c([nH]c(-c3ccnc(NC(=O)C(CC(F)F)c4ccc(F)cc4)c3)c2Nc2ccccc2F)CC1(C)C (single isomer, unassigned) [Example 47, 4,4-difluoro-N-{4-[3-(2-fluoroanilino)-5,6,6-trimethyl-4-oxo-4,5,6,7-tetrahydro-1H-pyrrolo[3,2-c]pyridin-2-yl]pyridin-2-yl}-2-(4-fluorophenyl)butanamide] | 163 nM | > 20000 nM |  | 151 nM | > 20000 nM
CC1(C)Cc2[nH]c(-c3ccnc(NC(=O)C(CC(F)F)c4ccc(F)cc4)c3)c(Nc3ccccc3)c2C(=O)N1 (single isomer, unassigned) [Example 50, N-[4-(3-anilino-6,6-dimethyl-4-oxo-4,5,6,7-tetrahydro-1H-pyrrolo[3,2-c]pyridin-2-yl)pyridin-2-yl]-4,4-difluoro-2-(4-fluorophenyl)butanamide] | 51 nM | 2460 nM |  | 68.2 nM | > 20000 nM
CC(C(=O)Nc1cc(-c2[nH]c3c(c2Nc2ccccc2)C(=O)N(C)CC3)ccn1)c1ccncc1 (single isomer, unassigned) [Example 74, N-[4-(3-anilino-5-methyl-4-oxo-4,5,6,7-tetrahydro-1H-pyrrolo[3,2-c]pyridin-2-yl)pyridin-2-yl]-2-(pyridin-4-yl)propanamide] | 33.9 nM | 599 nM | > 20000 nM | 55.1 nM | 
CC1(C)Cc2[nH]c(-c3ccnc(NC(=O)C(CC(F)F)c4ccc(F)cc4)c3)c(Nc3ccccc3)c2C(=O)N1 (single isomer, unassigned; (+)) [Example 49, (+)-N-[4-(3-anilino-6,6-dimethyl-4-oxo-4,5,6,7-tetrahydro-1H-pyrrolo[3,2-c]pyridin-2-yl)pyridin-2-yl]-4,4-difluoro-2-(4-fluorophenyl)butanamide] | 4.57 nM | 19.6 nM | > 20000 nM | 7.3 nM | 
O=C1NC2(CCC2)Cc2[nH]c(-c3ccnc(NC(=O)C(CC(F)F)c4ccc(F)cc4)c3)c(Nc3ccccc3)c21 (single isomer, unassigned; (+)) [Example 55, (+)-N-[4-(3′-anilino-4′-oxo-1′,4′,5′,7′-tetrahydrospiro[cyclobutane-1,6′-pyrrolo[3,2-c]pyridin]-2′-yl)pyridin-2-yl]-4,4-difluoro-2-(4-fluorophenyl)butanamide] | 4.25 nM | 9.1 nM | 1170 nM | 4.38 nM | 
CN(C)CCCC(C(=O)Nc1cc(-c2[nH]c3c(c2Nc2ccccc2)C(=O)N(C)CC3)ccn1)c1ccccc1 (single isomer, unassigned; (+)) [Example 60, (+)-N-[4-(3-anilino-5-methyl-4-oxo-4,5,6,7-tetrahydro-1H-pyrrolo[3,2-c]pyridin-2-yl)pyridin-2-yl]-5-(dimethylamino)-2-phenylpentanamide] | 7.34 nM | 437 nM | 7340 nM | 11.8 nM | 
CN1CCc2[nH]c(-c3ccnc(NC(=O)C(CC(F)F)c4ccc(F)cc4)c3)c(Nc3ccccc3)c2C1=O (single isomer, unassigned; (+)) [Example 63, (+)-N-[4-(3-anilino-5-methyl-4-oxo-4,5,6,7-tetrahydro-1H-pyrrolo[3,2-c]pyridin-2-yl)pyridin-2-yl]-4,4-difluoro-2-(4-fluorophenyl)butanamide] | 2.12 nM | 12.1 nM | 6680 nM | 4 nM | 
CC(C(=O)Nc1cc(-c2[nH]c3c(c2Nc2ccccc2)C(=O)N(C)CC3)ccn1)c1ccncc1 (single isomer, unassigned; (+)) [Example 73, (+)-N-[4-(3-anilino-5-methyl-4-oxo-4,5,6,7-tetrahydro-1H-pyrrolo[3,2-c]pyridin-2-yl)pyridin-2-yl]-2-(pyridin-4-yl)propanamide] | 2.38 nM | 63.3 nM | 6780 nM | 4.46 nM | 
CCC(C(=O)Nc1cc(-c2[nH]c3c(c2Nc2ccccc2)C(=O)N(C)CC3)ccn1)c1ccc(F)cc1 (single isomer, unassigned; (+)) [Example 77, (+)-N-[4-(3-anilino-5-methyl-4-oxo-4,5,6,7-tetrahydro-1H-pyrrolo[3,2-c]pyridin-2-yl)pyridin-2-yl]-2-(4-fluorophenyl)butanamide] | 2.12 nM | 86.7 nM |  | 4.43 nM | > 20000 nM
CC(C(=O)Nc1cc(-c2[nH]c3c(c2Nc2ccccc2)C(=O)N(C)CC3)ccn1)c1ccc(Cl)cc1 (single isomer, unassigned; (+)) [Example 81, (+)-N-[4-(3-anilino-5-methyl-4-oxo-4,5,6,7-tetrahydro-1H-pyrrolo[3,2-c]pyridin-2-yl)pyridin-2-yl]-2-(4-chlorophenyl)propanamide] | 4.33 nM | 71.4 nM |  | 8.47 nM | > 20000 nM
CC1Cc2[nH]c(-c3ccnc(NC(=O)Cc4ccc(F)cc4)c3)c(Nc3ccccc3)c2C(=O)N1C (single isomer, unassigned; (+)) [Example 89, (+)-N-{4-[3-anilino-5,6-dimethyl-4-oxo-4,5,6,7-tetrahydro-1H-pyrrolo[3,2-c]pyridin-2-yl]pyridin-2-yl}-2-(4-fluorophenyl)acetamide] | 1.88 nM | 364 nM | 6050 nM | 5.72 nM | 
CC(C(=O)Nc1cc(-c2[nH]c3c(c2Nc2ccccc2)C(=O)N(C)C(C)C3)ccn1)c1ccc(F)cc1 (single isomer, unassigned; (+)) [Example 91, (+)-(2RS)—N-{4-[(6R*)-3-anilino-5,6-dimethyl-4-oxo-4,5,6,7-tetrahydro-1H-pyrrolo[3,2-c]pyridin-2-yl]pyridin-2-yl}-2-(4-fluorophenyl)propanamide] | 4.73 nM | 693 nM | > 20000 nM | 8.83 nM | 
CC(C(=O)Nc1cc(-c2[nH]c3c(c2Nc2ccccc2)C(=O)N(C)C(C)C3)ccn1)c1ccc(F)cc1 (single isomer, unassigned; (+)) [Example 92, (+)-N-{4-[3-anilino-5,6-dimethyl-4-oxo-4,5,6,7-tetrahydro-1H-pyrrolo[3,2-c]pyridin-2-yl]pyridin-2-yl}-2-(4-fluorophenyl)propanamide] | 4.66 nM | 230 nM | > 20000 nM | 10.7 nM | 
CC(C(=O)Nc1cc(-c2[nH]c3c(c2Nc2ccccc2)C(=O)N(C)C(C)C3)ccn1)c1ccc(F)cc1 (single isomer, unassigned; (+)) [Example 96, (+)-N-{4-[3-anilino-5,6-dimethyl-4-oxo-4,5,6,7-tetrahydro-1H-pyrrolo[3,2-c]pyridin-2-yl]pyridin-2-yl}-2-(4-fluorophenyl)propanamide] | 5.37 nM | 35.8 nM | 7040 nM | 4.36 nM | 

— US12227501B2, “3-amino-2-[2-(acylamino)pyridin-4-yl]-1,5,6,7-tetrahydro-4h-pyrrolo[3,2-c]pyridin-4-one as CSNK1 inhibitors” (Bayer Aktiengesellschaft, priority 2019, dated 2025)
